Legend:
Format in all cases: cell-based
[1] = test system: Helicobacter pylori HP160; assay: MIC by broth microdilution method; set-up: key: +: Bacterial growth; −: No bacterial growth; settings: HP160 (Metronidazole resistant), 72 h
Method: (§1) 2.1 Detection of minimum inhibitory concentration (MIC, 100 µL system) of zinc linolenate for Helicobacter pylori by a broth microdilution method
(§2) (1) Zinc linolenate (2 mg/mL) is prepared.
(§3) (3) Bacterial solution preparation: the Helicobacter pylori grown in a log phase on a solid plate is taken to make a bacterial suspension with a BHI culture medium, the absorbance (OD600) is adjusted to 0.3 (1×10^8 CFU/mL), and the bacterial suspension is diluted 10 times to 1×10^7 CFU/mL for later use.
(§4) (4) Inoculation of bacterial solution: 10 μL of bacterial solution above is taken and added to the 1-8th wells (the concentration of the bacterial solution per well is about 1.0×10^6 CFU/mL). Culture is performed for 72 h to judge the result. The drug concentrations of the 1-7th wells are 64, 32, 16, 8, 4, 2, and 1 μg/mL, respectively.
(§5) The experiment only makes sense when the bacteria obviously grow in the 8th well, i.e. the positive control well (without antibiotics). When a single drift occurs in the microdilution method, the maximum drug concentration that inhibits bacterial growth should be recorded. If there are multiple drifts, the results should not be reported and the experiment should be repeated. The experiment is repeated 3 times for each drug.

[2] = test system: Helicobacter pylori HP159; assay: MIC by broth microdilution method; set-up: key: +: Bacterial growth; −: No bacterial growth; settings: HP159 (Levofloxacin, clarithromycin and metronidazole resistant), 72 h
Method: as §1, §2, §3, §4, §5

[3] = test system: Helicobacter pylori HP285; assay: MIC by broth microdilution method; set-up: key: +: Bacterial growth; −: No bacterial growth; settings: HP285 (Clarithromycin and metronidazole resistant), 72 h
Method: as §1, §2, §3, §4, §5

[4] = test system: Helicobacter pylori HP162; assay: MIC by broth microdilution method; set-up: key: +: Bacterial growth; −: No bacterial growth; settings: HP162 (Levofloxacin resistant), 72 h
Method: as §1, §2, §3, §4, §5

[5] = test system: Helicobacter pylori HP161; assay: MIC by broth microdilution method; set-up: key: +: Bacterial growth; −: No bacterial growth; settings: HP161 (Clarithromycin resistant), 72 h
Method: as §1, §2, §3, §4, §5

[6] = test system: Helicobacter pylori NSH57; assay: MIC by broth microdilution method; set-up: key: +: Bacterial growth; −: No bacterial growth; settings: NSH57 (Sensitive), 72 h
Method: as §1, §2, §3, §4, §5

Helicobacter pylori G27 = assay: MIC by broth microdilution method; set-up: key: +: Bacterial growth; −: No bacterial growth; settings: G27 (Sensitive), 72 h
Method: as §1, §2, §3, §4, §5

[7] = test system: Helicobacter pylori HP163; assay: MIC by broth microdilution method; set-up: key: +: Bacterial growth; −: No bacterial growth; settings: HP163 (Levofloxacin and metronidazole resistant), 72 h
Method: as §1, §2, §3, §4, §5

[8] = test system: Helicobacter pylori MSD132; assay: MIC by broth microdilution method; set-up: key: +: Bacterial growth; −: No bacterial growth; settings: MSD132 (Sensitive), 72 h
Method: as §1, §2, §3, §4, §5

[9] = test system: Helicobacter pylori HP26695; assay: MIC by broth microdilution method; set-up: key: +: Bacterial growth; −: No bacterial growth; settings: HP26695 (Sensitive), 72 h
Method: as §1, §2, §3, §4, §5

Ges-1 cells = test system: Ges-1 cells
Excerpt: 2.4.1 Cytotoxicity detection

CC/C=C\C/C=C\C/C=C\CCCCCCCC(=O)[O-].CC/C=C\C/C=C\C/C=C\CCCCCCCC(=O)[O-].[Zn+2] [zinc linolenate]
Bacterial growth ([1]; zinc linolenate 1 μg/ml): + | Bacterial growth ([1]; zinc linolenate 2 μg/ml): + | Bacterial growth ([1]; zinc linolenate 4 μg/ml): − | Bacterial growth ([1]; zinc linolenate 8 μg/ml): − | Bacterial growth ([1]; zinc linolenate 16 μg/ml): − | Bacterial growth ([1]; zinc linolenate 32 μg/ml): − | Bacterial growth ([1]; zinc linolenate 64 μg/ml): − | Bacterial growth ([2]; zinc linolenate 1 μg/ml): + | Bacterial growth ([2]; zinc linolenate 2 μg/ml): + | Bacterial growth ([2]; zinc linolenate 4 μg/ml): + | Bacterial growth ([2]; zinc linolenate 8 μg/ml): − | Bacterial growth ([2]; zinc linolenate 16 μg/ml): − | Bacterial growth ([2]; zinc linolenate 32 μg/ml): − | Bacterial growth ([2]; zinc linolenate 64 μg/ml): − | Bacterial growth ([3]; zinc linolenate 1 μg/ml): + | Bacterial growth ([3]; zinc linolenate 2 μg/ml): + | Bacterial growth ([3]; zinc linolenate 4 μg/ml): + | Bacterial growth ([3]; zinc linolenate 8 μg/ml): − | Bacterial growth ([3]; zinc linolenate 16 μg/ml): − | Bacterial growth ([3]; zinc linolenate 32 μg/ml): − | Bacterial growth ([3]; zinc linolenate 64 μg/ml): − | Bacterial growth ([4]; zinc linolenate 1 μg/ml): + | Bacterial growth ([4]; zinc linolenate 2 μg/ml): − | Bacterial growth ([4]; zinc linolenate 4 μg/ml): − | Bacterial growth ([4]; zinc linolenate 8 μg/ml): − | Bacterial growth ([4]; zinc linolenate 16 μg/ml): − | Bacterial growth ([4]; zinc linolenate 32 μg/ml): − | Bacterial growth ([4]; zinc linolenate 64 μg/ml): − | Bacterial growth ([5]; zinc linolenate 1 μg/ml): + | Bacterial growth ([5]; zinc linolenate 2 μg/ml): + | Bacterial growth ([5]; zinc linolenate 4 μg/ml): + | Bacterial growth ([5]; zinc linolenate 8 μg/ml): − | Bacterial growth ([5]; zinc linolenate 16 μg/ml): − | Bacterial growth ([5]; zinc linolenate 32 μg/ml): − | Bacterial growth ([5]; zinc linolenate 64 μg/ml): − | Bacterial growth ([6]; zinc linolenate 1 μg/ml): + | Bacterial growth ([6]; zinc linolenate 2 μg/ml): + | Bacterial growth ([6]; zinc linolenate 4 μg/ml): + | Bacterial growth ([6]; zinc linolenate 8 μg/ml): − | Bacterial growth ([6]; zinc linolenate 16 μg/ml): − | Bacterial growth ([6]; zinc linolenate 32 μg/ml): − | Bacterial growth ([6]; zinc linolenate 64 μg/ml): − | Bacterial growth (Helicobacter pylori G27; zinc linolenate 1 μg/ml): + | Bacterial growth (Helicobacter pylori G27; zinc linolenate 2 μg/ml): + | Bacterial growth (Helicobacter pylori G27; zinc linolenate 4 μg/ml): − | Bacterial growth (Helicobacter pylori G27; zinc linolenate 8 μg/ml): − | Bacterial growth (Helicobacter pylori G27; zinc linolenate 16 μg/ml): − | Bacterial growth (Helicobacter pylori G27; zinc linolenate 32 μg/ml): − | Bacterial growth (Helicobacter pylori G27; zinc linolenate 64 μg/ml): − | Bacterial growth ([7]; zinc linolenate 1 μg/ml): + | Bacterial growth ([7]; zinc linolenate 2 μg/ml): + | Bacterial growth ([7]; zinc linolenate 4 μg/ml): + | Bacterial growth ([7]; zinc linolenate 8 μg/ml): − | Bacterial growth ([7]; zinc linolenate 16 μg/ml): − | Bacterial growth ([7]; zinc linolenate 32 μg/ml): − | Bacterial growth ([7]; zinc linolenate 64 μg/ml): − | Bacterial growth ([8]; zinc linolenate 1 μg/ml): + | Bacterial growth ([8]; zinc linolenate 2 μg/ml): + | Bacterial growth ([8]; zinc linolenate 4 μg/ml): + | Bacterial growth ([8]; zinc linolenate 8 μg/ml): − | Bacterial growth ([8]; zinc linolenate 16 μg/ml): − | Bacterial growth ([8]; zinc linolenate 32 μg/ml): − | Bacterial growth ([8]; zinc linolenate 64 μg/ml): − | Bacterial growth ([9]; zinc linolenate 1 μg/ml): + | Bacterial growth ([9]; zinc linolenate 2 μg/ml): + | Bacterial growth ([9]; zinc linolenate 4 μg/ml): + | Bacterial growth ([9]; zinc linolenate 8 μg/ml): − | Bacterial growth ([9]; zinc linolenate 16 μg/ml): − | Bacterial growth ([9]; zinc linolenate 32 μg/ml): − | Bacterial growth ([9]; zinc linolenate 64 μg/ml): − | toxicity compared with linolenic acid (Ges-1 cells): smaller than that of linolenic acid

From US11203563B2, “Preparation of zinc linolenate, and application of zinc linolenate in preparing anti-helicobacter pylori drug” (NANJING MEDICAL UNIVERSITY, priority 2018, dated 2021)
